Source: patent US20180311342A1, “IMMUNOSTIMULATING AGENT” (AJINOMOTO CO., INC., priority 2017, published 2018)

Tested on: anti-OVA-specific IgG1 and IgG2a subclass antibody production
Assay: Evaluation test of adjuvant activity (overall conclusion from anti-OVA IgG1 and IgG2a production)
Assay type: in vivo, BALB/c mice
Procedure: 8-Week-old female BALB/c mice were divided into groups (N=6), and each group was primarily immunized by dorsal-subcutaneous administration of (1) ovalbumin (OVA) (5 μg) dissolved in saline as an antigen (OVA single administration group), (2) OVA 5 μg and Addavax™ (mixed with saline at 1:1) dissolved in saline (Addavax™ administration group) as positive control adjuvant, (3) OVA 5 μg and SZ137 0.256 μmol dissolved or dispersed in 5% α-cyclodextrin (hereinafter to be simply referred to as αCD)-added saline (SZ137 administration group), (4) OVA (5 μg) and SZ138 (0.256 μmol) dissolved or dispersed in 5% αCD-added saline (SZ138 administration group), (5) OVA (5 μg) and SZ142 (0.256 μmol) dissolved or dispersed in 5% αCD-added saline (SZ142 administration group), (6) OVA (5 μg) and SZ144 (0.256 μmol) dissolved or dispersed in 5% αCD-added saline (SZ144 administration group), (7) OVA (5 μg) and SZ145 (0.256 μmol) dissolved or dispersed in 5% αCD-added saline (SZ145 administration group), (8) OVA (5 μg) and SZ146 (0.256 μmol) dissolved or dispersed in 5% αCD-added saline (SZ146 administration group), (9) OVA (5 μg) and SZ147 (0.256 μmol) dissolved or dispersed in 5% αCD-added saline (SZ147 administration group), (10) OVA (5 μg) and SZ148 (0.256 μmol) dissolved or dispersed in 5% αCD-added saline (SZ148 administration group), each per mouse. Two week later, the secondary immunization was carried out by dorsal-subcutaneous administration of solutions or dispersions similar to those of the above-mentioned (1)-(10) again. […]
To a 96 well plate was added 5 μg/ml OVA at 100 µl/well, and the mixture was incubated at 4° C. overnight. After incubation, the mixture was washed three times with 200 μl of PBS-T (PBS (phosphate buffered saline)+0.05% (v/v) Tween 20) per well, and blocked with 100 μl of 5% FCS (fetal calf serum)/PBS solution per well at room temperature for 1-2 hr. Thereafter, the mixture was washed three times with PBS-T (200 μl/well), a diluted serum sample (100 l/well) or the same amount of 5% FCS/PBS solution as a control was added, and the mixture was incubated at 37° C. for 1 hr. To calculate concentration of the antibody, the standard of an anti-OVA-specific IgG1 subclass antibody diluted with 2% FCS/PBS solution was added at 100 ng/ml, 50 ng/ml, 25 ng/ml, 12.5 ng/ml, 6.25 ng/ml, 3.125 ng/ml, 1.56 ng/ml, 0.781 ng/ml, 0.391 ng/ml, 0.195 ng/ml, 0.098 ng/ml, 0 ng/ml, per 1 well. When an anti-OVA-specific IgG2a subclass antibody was measured, the standard of an anti-OVA-specific IgG2a subclass antibody was added at 50 ng/ml, 25 ng/ml, 12.5 ng/ml, 6.25 ng/ml, 3.125 ng/ml, 1.56 ng/ml, 0.781 ng/ml, 0.391 ng/ml, 0.195 ng/ml, 0.098 ng/ml, 0.049 ng/ml, 0 ng/ml, per 1 well. Thereafter, similar to the samples, the mixture was washed five times with PBS-T (200 μl/well), a diluted biotinylated anti-mouse IgG1 antibody and IgG2a antibody were added (100 μl/well), and the mixture was incubated at 37° C. for 45 min. Thereafter, the mixture was washed five times with PBS-T (200 μl/well), a diluted anti-biotin-HRP antibody was added (100 μl/well), and the mixture was incubated at 37° C. for another 30 min. Thereafter, the mixture was washed five times with PBS-T (200 μl/well), TMB substrate solution was added (100 μl/well), and the mixture was incubated at room temperature for 10-15 min. Thereafter, a reaction quenching liquid (2N sulfuric acid solution) was added (50 l/well) to discontinue a color developing reaction, and the absorbance (OD Value=450 nm) was measured by a microplate reader. A standard curve was drawn from the measured OD values, and the concentration was calculated. […]

[1] = conclusion from IgG1/IgG2a after primary immunization, compound 0.256 μmol in 5% αCD-added saline with OVA 5 μg, dorsal-subcutaneous
[2] = conclusion from IgG1/IgG2a after secondary immunization, compound 0.256 μmol in 5% αCD-added saline with OVA 5 μg, dorsal-subcutaneous

SMILES: CCCCCCCCCCCCCCCC(=O)N[C@@H](CCCNC(=N)N)C(=O)NCCCCCCCC.Cl [SZ181, N-[(1S)-4-guanidino-1-(octylcarbamoyl)butyl]hexadecanamide hydrochloride]
- adjuvant activity [1]: have an adjuvant activity
- adjuvant activity [2]: have an adjuvant activity

SMILES: CCCCCCCCCCCCCCCCCCCCCC(=O)N[C@@H](C)C(=O)NCCCCCCCCCCCC [SZ145, N-[(1S)-2-(dodecylamino)-1-methyl-2-oxo-ethyl]docosanamide]
- adjuvant activity [2]: have an adjuvant activity

SMILES: CCCCCCCCCCCCCCCCNC(=O)N[C@@H](CCCCN)C(=O)NCCCCCCCC.Cl [SZ213, (2S)-6-amino-2-(hexadecylcarbamoylamino)-N-octyl-hexanamide hydrochloride]
- adjuvant activity [1]: have an adjuvant activity
- adjuvant activity [2]: have an adjuvant activity

SMILES: CCCCCCCC/C=C/CCCCCCCC(=O)N[C@@H](CCCNC(=N)N)C(=O)NCCCCCCCCCCCC.Cl [SZ161, (E)-N-[(1S)-1-(dodecylcarbamoyl)-4-guanidino-butyl]octadeca-9-enamide hydrochloride]
- adjuvant activity [2]: have an adjuvant activity

SMILES: CCCCCCCCCCCCCCCCCCNC(=O)N[C@@H](CCCNC(=N)N)C(=O)NCCCCCCCCCCCC.Cl [SZ211, (2S)—N-dodecyl-5-guanidino-2-(octadecylcarbamoylamino)pentanamide hydrochloride]
- adjuvant activity [1]: have an adjuvant activity
- adjuvant activity [2]: have an adjuvant activity

SMILES: CCCCCCCCCCCCCCCCCCCCCC(=O)N[C@@H](CC(C)C)C(=O)NCCCCCCCCCCC [SZ142, N-[(1S)-3-methyl-1-(undecylcarbamoyl)butyl]docosanamide]
- adjuvant activity [2]: have an adjuvant activity

SMILES: CCCCCCCCCCCCCCCCCC(=O)N[C@@H](CCCNC(=N)N)C(=O)NCCCCCCCC.Cl [SZ182, N-[(1S)-4-guanidino-1-(octylcarbamoyl)butyl]octadecanamide hydrochloride]
- adjuvant activity [1]: have an adjuvant activity
- adjuvant activity [2]: have an adjuvant activity

SMILES: CCCCCCCCCCCCCCCC(=O)N[C@@H](CC(C)C)C(=O)NCCCCCCCCCCCC [SZ144, N-[(1S)-1-(dodecylcarbamoyl)-3-methyl-butyl]hexadecanamide]
- adjuvant activity [2]: have an adjuvant activity

SMILES: CCCCCCCCCCCCCCCCCCCCCC(=O)NCCc1ccncc1.Cl [SZ209, N-[2-(4-pyridyl)ethyl]docosanamide hydrochloride]
- adjuvant activity [1]: have an adjuvant activity
- adjuvant activity [2]: have an adjuvant activity

SMILES: CCCCCCCCCCCCCCCCOC(=O)N[C@@H](CCCNC(=N)N)C(=O)NCCCCCCCC.Cl [SZ215, hexadecyl N-[(1S)-4-guanidino-1-(octylcarbamoyl)butyl]carbamate hydrochloride]
- adjuvant activity [1]: have an adjuvant activity
- adjuvant activity [2]: have an adjuvant activity

SMILES: CCCCCCCCCCCCCCCCCC(=O)N[C@@H](CCCCNC(=N)N)C(=O)NCCCCCC.Cl [SZ206, N-[(1S)-1-(hexylcarbamoyl)-5-guanidino-pentyl]octadecanamide hydrochloride]
- adjuvant activity [1]: have an adjuvant activity
- adjuvant activity [2]: have an adjuvant activity

SMILES: CCCCCCCCCCCCCCCCOC(=O)N[C@@H](CCCNC(=N)N)C(=O)NCCCCCC.Cl [SZ169, Hexadecyl N-[(1S)-4-guanidino-1-(hexylcarbamoyl)butyl]carbamate hydrochloride]
- adjuvant activity [2]: have an adjuvant activity

SMILES: CCCCCCCCCCCCCCCCCC(=O)N[C@@H](CC(C)C)C(=O)NCCCCCCCCCCCC [SZ195, N-[(1S)-1-(dodecylcarbamoyl)-3-methyl-butyl]octadecanamide]
- adjuvant activity [1]: have an adjuvant activity
- adjuvant activity [2]: have an adjuvant activity

SMILES: CCCCCCCCCCCCCCCCCCCCCC(=O)N[C@@H](CCCNC(=N)N)C(=O)N(CCCCCCC)CCCCCCC.Cl [SZ159, N-[(1S)-1-(diheptylcarbamoyl)-4-guanidino-butyl]docosanamide hydrochloride]
- adjuvant activity [2]: have an adjuvant activity

SMILES: CCCCCCCCCCCCCCCCCC(=O)N[C@@H](CC(C)C)C(=O)NCCCCCCCC [SZ196, N-[(1S)-3-methyl-1-(octylcarbamoyl)butyl]octadecanamide]
- adjuvant activity [1]: have an adjuvant activity
- adjuvant activity [2]: have an adjuvant activity

SMILES: CCCCCCCCCCCCCCCCCCCCCC(=O)N[C@@H](CCCNC(=N)N)C(=O)NCCCCCCC.Cl [SZ163, N-[(1S)-4-guanidino-1-(heptylcarbamoyl)butyl]docosanamide hydrochloride]
- adjuvant activity [2]: have an adjuvant activity

SMILES: CCCCCCCCCCCCCCCCCCCCCC(=O)NCCC(=O)NCCCCCCCCCCCC [SZ147, N-[3-(dodecylamino)-3-oxo-propyl]docosanamide]
- adjuvant activity [2]: have an adjuvant activity

SMILES: CCCCCCCCCCCCCCCC(=O)N[C@@H](CCCNC(=N)N)C(=O)NCCCCCCCCCCCC.Cl [SZ111, N-[(1S)-1-(dodecylcarbamoyl)-4-guanidino-butyl]hexadecanamide hydrochloride]
- adjuvant activity (Experimental Example 4: conclusion from IgG1/IgG2a after secondary immunization, compound dissolved in saline): has an adjuvant activity
- adjuvant activity [2]: has an adjuvant activity

SMILES: CCCCCCCCCCCCCCCCCCCCCC(=O)N[C@@H](CCCNC(=N)N)C(=O)NCCCCCCCCCCCC.Cl [SZ138, N-[(1S)-1-(dodecylcarbamoyl)-4-guanidino-butyl]docosanamide hydrochloride]
- adjuvant activity [2]: have an adjuvant activity

SMILES: CCCCCCCCCCCCNC(=O)N[C@@H](CCCNC(=N)N)C(=O)NCCCCCCCCCCCC.Cl [SZ212, (2S)—N-dodecyl-2-(dodecylcarbamoylamino)-5-guanidino-pentanamide hydrochloride]
- adjuvant activity [1]: have an adjuvant activity
- adjuvant activity [2]: have an adjuvant activity

SMILES: CCCCCCCCCCCCCCCCCCCCCC(=O)N[C@@H](CCCCNC(=N)N)C(=O)NCCCCCC.Cl [SZ170, N-[(1S)-5-guanidino-1-(hexylcarbamoyl)pentyl]docosanamide hydrochloride]
- adjuvant activity [2]: have an adjuvant activity

SMILES: CCCCCCCCCCCCCCCCNC(=O)N[C@@H](CCCNC(=N)N)C(=O)NCCCCCC.Cl [SZ168, (2S)-5-guanidino-2-(hexadecylcarbamoylamino)-N-hexyl-pentanamide hydrochloride]
- adjuvant activity [2]: have an adjuvant activity

SMILES: CCCCCCCCCCCCCCCCCCCCCC(=O)NC(C)(C)C(=O)NCCCCCCCCCCCC [SZ146, N-[2-(dodecylamino)-1,1-dimethyl-2-oxo-ethyl]docosanamide]
- adjuvant activity [2]: have an adjuvant activity

SMILES: CCCCCCCCCCCCCCCCNC(=O)NCCCCNC(=N)N.Cl [SZ190, 1-(4-guanidinobutyl)-3-hexadecyl-urea hydrochloride]
- adjuvant activity [1]: have an adjuvant activity
- adjuvant activity [2]: have an adjuvant activity

SMILES: CCCCCCCCCCCCCCCCCCCCCC(=O)NCC(C)(C)C(=O)NCCCCCCCCCCCC [SZ148, N-[3-(dodecylamino)-2,2-dimethyl-3-oxo-propyl]docosanamide]
- adjuvant activity [2]: have an adjuvant activity

SMILES: CCCCCCCCCCCCCCCCCCCCCC(=O)N[C@@H](CC(C)C)C(=O)NCCCCCCCCCCCC [SZ197, N-[(1S)-1-(dodecylcarbamoyl)-3-methyl-butyl]docosanamide]
- adjuvant activity [1]: have an adjuvant activity
- adjuvant activity [2]: have an adjuvant activity
